# Measured values as given in patent publication US10308649B2, “Compounds and methods to suppress autoimmune response” (Oregon State University, priority 2014, dated 2019).
# Key:
# AhR [1] = assay: XRE-luciferase reporter gene in Hepa-1 cells expressing endogenous AhR; format: cell-based, mouse; conditions: for XRE-luciferase reporter activity, in words: 16 hours after treating; for fold activation of AhR (reporter gene activity): 10 nM, 12 hours
# Procedure: FIGS. 9a-9f illustrate activity studies for 10-Cl-BBQ, 11-Cl-BBQ, and combinations thereof. Hepa-1 cells expressing endogenous AhR were transfected with a xenobiotic responsive element (XRE)-luciferase reporter gene. […] The activity was measured 16 hours after treating the cells with the various concentrations.
# The reporter gene activity was measured after 12 hours of treatment with TCDD at a concentration of 1 nM or with the indicated concentrations of AHRL1.
# Hepa-1 cells expressing endogenous AhR were transfected with a XRE-luciferase reporter gene. […] The mean luciferase activity is shown with SEM.
# [2] = Serum pharmacokinetics after i.p. injection; conditions: mouse
# Procedure: FIGS. 13a and 13b show the pharmacokinetics of AHRL1. To determine the half-life of AHRL1, mice were treated with a single intraperitoneal injection of the chemical, and serum concentrations were measured over time by mass spectrometry. In FIG. 13a, C57BL/6 mice were given 10 mg/kg AHRL1 by i.p. injection. Blood was collected at the indicated times by cardiac puncture. The blood serum was processed to remove protein and the samples were analyzed by QTRAP 4000 LC/MS/MS. The blood serum concentration of AHRL1 was determined from a standard curve based on known concentrations of AHRL1.
# Based on the model, the serum half-life of AHRL1 is approximately 2 hours. Additional kinetic parameters include the absorption rate constant (ka) which was 1.2 h^−1. […] The area under the concentration-time curve (AUC0-∞) was 102.5 mg/L*h.
# AhR [3] = target: T1, AhR (Mus musculus, UniProt P30561); assay: Competitive inhibition of [3H] 3-MC binding to AhR; conditions: for fold lower / less active than TCDD: relative to IC50 of TCDD
# T1 sequence (P30561 10-848): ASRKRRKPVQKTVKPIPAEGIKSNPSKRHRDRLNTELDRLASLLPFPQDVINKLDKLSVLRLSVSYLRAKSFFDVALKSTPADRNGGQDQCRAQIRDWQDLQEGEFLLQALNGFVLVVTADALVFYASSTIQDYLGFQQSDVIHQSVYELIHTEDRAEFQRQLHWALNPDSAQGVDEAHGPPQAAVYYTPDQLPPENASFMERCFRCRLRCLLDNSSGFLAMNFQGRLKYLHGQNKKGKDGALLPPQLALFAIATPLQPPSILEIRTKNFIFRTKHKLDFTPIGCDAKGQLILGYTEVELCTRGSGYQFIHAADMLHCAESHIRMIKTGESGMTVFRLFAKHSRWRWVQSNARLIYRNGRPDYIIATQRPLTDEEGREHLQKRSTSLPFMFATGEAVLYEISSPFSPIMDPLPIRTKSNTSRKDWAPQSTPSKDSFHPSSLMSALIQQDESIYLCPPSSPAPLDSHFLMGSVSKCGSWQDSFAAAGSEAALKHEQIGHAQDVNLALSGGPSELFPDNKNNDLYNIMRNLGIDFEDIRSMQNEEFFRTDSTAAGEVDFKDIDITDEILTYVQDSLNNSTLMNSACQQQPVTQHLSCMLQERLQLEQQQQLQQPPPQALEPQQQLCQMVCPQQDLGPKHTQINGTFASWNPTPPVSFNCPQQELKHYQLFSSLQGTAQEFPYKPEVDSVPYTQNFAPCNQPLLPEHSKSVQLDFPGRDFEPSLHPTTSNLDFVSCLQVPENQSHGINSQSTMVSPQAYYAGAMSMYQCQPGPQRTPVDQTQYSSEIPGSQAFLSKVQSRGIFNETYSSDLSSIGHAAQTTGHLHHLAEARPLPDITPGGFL
# Text: 3-MC binding to AhR. […] 3-methylcholanthrene (3-MC) to AhR.
# donor CD4+ T cells = assay: Acute graft versus host model: Treg phenotype of alloactivated donor CD4+ T cells; format: in vivo, mouse; conditions: 10 mg/kg day 0 and day 1, day 2, p-value=0.05
# Procedure: FIGS. 14a-14i show AHRL1 induces an AhR-dependent Treg phenotype by a mechanism that is mediated by the AhR in donor CD4+ T cells. The AhR-induced Tregs were identified as the CD4+CD25+CTLA-4+CD62L^low population of T cells. To determine if AHRL1 induced changes in donor CD4+ T cells, AHRL1 was compared with TCDD and the vehicle. On day 0, B6D2F1 host mice in groups of 5 were injected with CFSE-labeled C57BL/6 (H-2^b/b) T cells and given 15 mg/kg of AHRL1, 15 μg/kg of TCDD, or vehicle by i.p. injection. At 24 hours, an additional dose of 7 mg/kg of AHRL1 or vehicle was given. Mice that were treated with TCDD at the time of donor cell transfer were used as positive controls. Splenocytes were isolated on day 2 for phenotypic analysis of the alloresponsive (CFSE-diluted) donor CD4+ T cells. Splenocytes were harvested from the host mice and the CD4+ T cells were identified by flow cytometry.
# On day 0, B6D2F1 host mice in groups of 5 were injected with donor T cells obtained from AhR^+/+ or AhR-deficient (AhR^−/−) C57BL/6 mice. Host mice were treated with 2 mg/kg of AHRL1 or vehicle immediately following donor cell transfer and again at 24 hours. […] Thus, the AhR in the CD4+ T cell is the primary target driving the AhR-Treg phenotype.
# On day 0, B6D2F1 host mice in groups of 3-5 were injected with C57BL/6 T cells. Mice were immediately treated with 0 mg/kg, 0.4 mg/kg, 2 mg/kg, or 10 mg/kg of AHRL1 and again on day 1. On day 2, expression of markers associated with the AhR-Treg phenotype increased as the dose of AHRL1 increased. Further, dosing generally correlated with degree of activation of AhR as reflected by CYP1A1, CYP1B1, and AHRR expression in lymph nodes from the same mice. The asterisk (*) indicates a p-value of 0.05 relative to vehicle treatment.
# FIGS. 16c and 16d show expression of phenotypic markers, CD25+ICOS+CD62L^low and CD25+CTLA-4+, associated with AhR-Tregs in mice treated with AHRL1. Host mice were treated with 10 mg/kg of AHRL1, 11-Cl-BBQ analog, or vehicle on day 0 and day 1 following donor cell transfer. On day 2, the alloactivated CD4+ donor T cells were identified based on CFSE dilution. The percentage of donor cells in each group expressing the Treg markers were derived from flow histograms. The data represents mean±SEM of 5 mice per treatment. […] Analog 1 is statistically different from AHRL1 and analog 4 (p-value=0.05). […], analog 1, and analog 4 are shown to be AhR ligands that are capable of inducing Tregs in vivo. Accordingly, analogs 1 and 4 are expected to have a similar therapeutic effect in a subject as AHRL1 by suppressing an autoimmune response. Additionally, analog 6, analog 7, and other analogs of 11-Cl-BBQ, that are found to be active AhR ligands using the disclosed screening method, are expected to induce Tregs and suppress CTL to provide treatment and/or prevention of immune-mediated diseases.
SMILES,IC50 (AhR [3]),"IC50, competitive inhibition of [3H] 3-MC binding to AhR (AhR [3])","XRE-luciferase reporter activity, in words (AhR [1])",in vivo serum half-life [2],fold activation of AhR (reporter gene activity) (AhR [1]),fold lower / less active than TCDD (AhR [3]),expression of CD25+CTLA-4+ on alloactivated CD4+ donor T cells (donor CD4+ T cells),expression of CD25+ICOS+CD62Llow on alloactivated CD4+ donor T cells (donor CD4+ T cells)
"O=c1c2cccc3cccc(c32)c2nc3ccc(Cl)cc3n12 [10-Cl-BBQ, 10-chloro-7H-benzimidazo[2,1-a]benzo[de]Iso-quinolin-7-one]",,,activate AhR,approximately two,,,,
"O=c1c2ccc(Cl)c3cccc(c32)c2nc3cc(Cl)ccc3n12 [analog 4, 4,11-Dichloro-7H-benzimidazo[2,1-a]benzo[de]isoquinolin-7-one]",5.2 nM,,,,19 fold,,statistically different from vehicle,statistically different from vehicle
"O=c1c2ccc3ccc4cccc5cc(c2c3c45)c2nc3ccc(Cl)cc3n12 [analog 3, 11-Chloro-8H-benzimidazo[2,1-a]phenanthro[3,4,5-defg]isoquinolin-8-one]",77.3 nM,,,,2 fold,10 fold,,
"O=c1c2cccc3cccc(c32)c2nc3cc(Cl)ccc3n12 [11-Cl-BBQ, 11-chloro-7H-benzimidazo[2,1-a]benzo[de]Iso-quinolin-7-one]",,,increased AhR reporter activity as compared to 10-Cl-BBQ alone,approximately two,,,,
"NN1C(=O)c2ccc3c(=O)n4c5ccc(Cl)cc5nc4c4ccc(c2c34)C1=O [analog 2, 2-Amino-10-chlorobenzimidazo[2,1-b]benzo[lmn][3,8]phenanthroline-1,3,6(2H)-trione]",,inactive,,,did not induce reporter activity,,,

# Second part, led by results:
IC50 (AhR [3]),"IC50, competitive inhibition of [3H] 3-MC binding to AhR (AhR [3])",SMILES,"XRE-luciferase reporter activity, in words (AhR [1])",in vivo serum half-life [2],fold activation of AhR (reporter gene activity) (AhR [1]),fold lower / less active than TCDD (AhR [3]),expression of CD25+CTLA-4+ on alloactivated CD4+ donor T cells (donor CD4+ T cells),expression of CD25+ICOS+CD62Llow on alloactivated CD4+ donor T cells (donor CD4+ T cells)
45200 nM,,"O=C(O)c1ccc2c3c1cccc3c(=O)n1c3ccccc3nc21 [analog 5, 7-Oxo-7H-benzimidazo[2,1-a]benzo[de]isoquinoline-3-carboxylic acid]",,,did not induce reporter activity,1000 fold,,
13.7 nM,,"O=c1c2cccc3cccc(c32)c2nc3ccccc3n12 [analog 1, 7H-Benzimidazo[2,1-a]benzo[de]isoquinolin-7-one]",,,13 fold,,statistically different from vehicle,statistically different from vehicle
